{"source": "patent US8568736B2", "about": "“Polypeptide derivatives of parathyroid hormone (PTH)” (The General Hospital Corporation, priority 1999, dated 2013)", "key": {"PTH-1 receptor [1]": {"target": "T1, PTH-1 receptor (Homo sapiens, UniProt Q03431)", "T1 sequence (Q03431 27-593)": "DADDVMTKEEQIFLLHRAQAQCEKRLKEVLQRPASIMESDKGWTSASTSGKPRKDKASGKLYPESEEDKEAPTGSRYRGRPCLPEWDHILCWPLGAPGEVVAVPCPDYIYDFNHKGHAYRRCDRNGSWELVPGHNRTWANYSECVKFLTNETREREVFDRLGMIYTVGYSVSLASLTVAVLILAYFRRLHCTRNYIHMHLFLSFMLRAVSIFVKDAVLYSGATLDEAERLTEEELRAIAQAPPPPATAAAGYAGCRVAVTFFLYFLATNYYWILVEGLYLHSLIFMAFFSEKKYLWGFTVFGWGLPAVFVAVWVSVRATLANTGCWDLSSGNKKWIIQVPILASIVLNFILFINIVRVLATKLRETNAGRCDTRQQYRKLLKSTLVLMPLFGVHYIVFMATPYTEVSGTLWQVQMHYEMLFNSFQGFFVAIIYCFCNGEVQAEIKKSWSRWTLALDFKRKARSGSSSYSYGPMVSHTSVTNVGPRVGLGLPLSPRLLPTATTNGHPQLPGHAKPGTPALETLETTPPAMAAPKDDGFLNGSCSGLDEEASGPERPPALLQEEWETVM", "details": "literature; cited from earlier work"}, "PTH-1 receptor [2]": {"target": "T1, PTH-1 receptor", "parameters": "expressed in transfected cells; host or cells: LLC-PK1 porcine kidney cells, clone HKRK-B7", "details": "HKRK-B7 cells; Luck et al. 1999; cited from earlier work"}, "hPTH-2 Receptor": {"target": "T2, hPTH-2 Receptor (Homo sapiens, UniProt P49190)", "T2 construct": "expressed in transfected cells; host or cells: LLC-PK1 porcine kidney cells (clone given as hPR2-20, hPR2-22, LLC-P2R-22 or P2R-22)", "T2 sequence (P49190 25-550)": "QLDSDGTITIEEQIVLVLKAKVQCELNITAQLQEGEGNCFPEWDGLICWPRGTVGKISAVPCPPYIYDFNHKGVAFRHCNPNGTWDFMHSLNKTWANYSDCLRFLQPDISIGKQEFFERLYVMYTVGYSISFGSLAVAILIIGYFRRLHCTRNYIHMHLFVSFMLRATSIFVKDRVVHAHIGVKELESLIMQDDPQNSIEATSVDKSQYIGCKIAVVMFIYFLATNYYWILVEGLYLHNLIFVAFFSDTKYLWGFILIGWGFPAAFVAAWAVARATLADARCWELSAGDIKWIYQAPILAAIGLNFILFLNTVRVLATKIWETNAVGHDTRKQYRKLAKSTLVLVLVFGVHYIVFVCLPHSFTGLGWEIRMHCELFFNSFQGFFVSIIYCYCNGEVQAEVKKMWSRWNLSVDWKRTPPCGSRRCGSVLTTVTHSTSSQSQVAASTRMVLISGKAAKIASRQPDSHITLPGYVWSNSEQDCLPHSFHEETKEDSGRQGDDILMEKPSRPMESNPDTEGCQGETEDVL", "assay": "cAMP stimulation in LLC-P2R-22 cells (LLC-PK1 stably transfected with hPTH-2 receptor)", "type": "cell-based", "details": "LLC-P2R-22 cells (hPTH-2 Receptor)", "excerpt": "(§1) Stably transfected derivatives of the porcine kidney cell line LLC-PK1, HKRK-B7 (Takasu, H., et al., J. Bone Miner. Res. 14:11-20 (1999)) and hPR2-20, express the human PTH-1 and human PTH-2 receptors respectively. The HKRK-B7 LLC-PK1 cell line expresses the hPTH-1 receptor at ˜1×10^6 receptors/cell (Takasu, H., et al., J. Bone Miner. Res. 14:11-20 (1999)), and the hPR2-22 LLC-PK1 cell line expresses the hPTH-2 receptor at ˜0.8×10^6 receptors/cell (provided by H. Takasu and F. R. Bringhurst, Endocrine Unit, Massachusetts General Hospital).\n(§2) Stimulation of cells with peptide analogs was performed in 24-well plates. Cells were rinsed with 0.5 mL of binding buffer and treated with 200 μL of cAMP assay buffer (Dulbecco's modified Eagle's medium containing 2 mM 3-isobutyl-1-methylxanthine, 1 mg/mL bovine serum albumin, 35 mM Hepes-NaOH, pH 7.4) and 100 μL of binding buffer containing varying amounts of peptide analog (final volume=300 μL). The medium was removed after incubation for 1 h at room temperature, and the cells were frozen (−80° C.), lysed with 0.5 mL 50 mM HCl, and refrozen (−80° C.). The cAMP content of the diluted lysate was determined by radioimmunoassay. Where possible, cAMP EC50 and Maximum response values were determined using nonlinear regression (see below).\n(§3) Intracellular cAMP accumulation may be measured as described by Abou-Samra et al., J. Biol. Chem. 262:1129, 1986) or other methods known to those of skill in the art. Intracellular cAMP is extracted by thawing the cells in 1 ml of 50 mM HCl and analyzed by a specific radioimmunoassay using an anti-cAMP antibody (e.g., Sigma, St. Louis, Mo.). A cAMP analog (2′-O-monosuccinyl-adenosine 3′:5′-cyclic monophosphate tyrosyl methyl ester, obtained from Sigma) which is used as a tracer for cAMP is iodinated by the chloramine T method. Free iodine is removed by adsorbing the iodinated cAMP analog onto a C18 Sep-pak cartridge (Waters, Milford, Mass.). After washing with dH2O, the iodinated cAMP analog is eluted from the Sep-pak Cartridge with 40% acetonitrille (ACN) and 0.1% trifluoroacetic acid (TFA). The iodinated cAMP analog is lyophilized, reconstituted in 1 ml 0.1% TFA, and injected into a C18 reverse phase HPLC column (Waters). The column is equilibrated with 10% ACN in 0.1% TFA, and eluted with gradient of 10-30% ACN in 0.1% TFA. This allows separation of the mono-iodinated cAMP analog from the non-iodinated cAMP analog. The tracer is stable for up to 4 months when stored at −20° C. The standard used for the assay, adenosine 3′:5′-cyclic monophosphate, is purchased from Sigma. Samples (1-10 µl of HCl extracts) or standards (0.04-100 fmol/tube) are diluted in 50 mM Na-acetate (pH 5.5), and acetylated with 10 μl of mixture of triethylamine and acetic anhydride (2:1 vol:vol). After acetylation, cAMP antiserum (100 μl) is added from a stock solution (1:4000) made in PBS (pH 7.4), 5 mM EDTA and 1% normal rabbit serum. The tracer is diluted in PBS (pH 7.4) with 0.1% BSA, and added (20,000 cpm/tube). The assay is incubated at 4° C. overnight. The bound tracer is precipitated by adding 100 μl of goat anti-rabbit antiserum (1:20 in PBS) and 1 ml of 7% polyethyleneglycol (MW 5000-6000), centrifuging at 2000 rpm for 30 min. at 4° C. The supernatant is removed and the bound radioactivity is counted in a gamma-counter (Micromedic). To compute the cAMP data, logit calculations were performed in Excel spreadsheets. Typically, the assay sensitivity is 0.1 fmol/tube, and the standard concentration that displaces 50% of tracer is 5 fmol/tube.\n(§4) All calculations were performed using Microsoft Excel. Nonlinear regression analysis of cAMP stimulation data was performed using parameters, defined as the Minimum, Maximum, Emax, midpoint (EC50), and slope of the response curve. The predicted response (yp) for a given dose (x) of peptide was calculated using the following equation: yp=Min+[(Max−Min)/(1+(EC50/x)^slope)]. […]"}, "PTH-1 receptor [3]": {"target": "T1, PTH-1 receptor", "assay": "cAMP stimulation in HKRK-B7 cells (LLC-PK1 stably transfected with hPTH-1 receptor)", "type": "cell-based", "parameters": "expressed in transfected cells; host or cells: LLC-PK1 porcine kidney cells, clone HKRK-B7", "details": "for cAMP signaling activity (in words) / Emax: HKRK-B7 cells; for cAMP signaling activity (in words): dose-response; for Emax: Emax constrained to ±1 SD of rPTH(1-34) response at 100 nM", "excerpt": "as §1, §2, §3, §4"}, "[4]": {"tested_on": "truncated PTH-1 receptor rP1R-ΔNt", "details": "truncated rat PTH receptor vs intact rPTH-1 receptor; Luck et al. 1999; cited from earlier work"}, "[5]": {"details": "subcutaneous, in combination with oral estrogen, postmenopausal osteoporosis; cited from earlier work"}, "[6]": {"target": "T3, cloned rat PTH-1 receptor (Rattus norvegicus, UniProt P25961)", "T3 construct": "host or cells: CHO cells", "T3 sequence (P25961 27-591)": "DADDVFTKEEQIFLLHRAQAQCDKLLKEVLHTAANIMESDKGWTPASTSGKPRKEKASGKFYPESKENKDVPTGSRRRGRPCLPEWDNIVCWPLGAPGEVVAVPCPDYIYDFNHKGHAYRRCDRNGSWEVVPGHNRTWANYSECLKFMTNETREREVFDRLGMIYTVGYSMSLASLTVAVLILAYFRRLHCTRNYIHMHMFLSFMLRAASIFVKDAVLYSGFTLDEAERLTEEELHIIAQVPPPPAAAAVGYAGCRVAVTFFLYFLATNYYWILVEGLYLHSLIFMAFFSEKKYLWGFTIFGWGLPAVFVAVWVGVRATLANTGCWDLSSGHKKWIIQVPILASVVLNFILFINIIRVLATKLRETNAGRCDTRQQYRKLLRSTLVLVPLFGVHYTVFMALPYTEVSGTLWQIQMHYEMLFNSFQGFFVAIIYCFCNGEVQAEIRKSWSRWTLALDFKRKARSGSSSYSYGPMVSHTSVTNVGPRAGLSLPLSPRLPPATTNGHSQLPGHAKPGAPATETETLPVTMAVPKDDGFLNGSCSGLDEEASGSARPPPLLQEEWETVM", "details": "CHO cells, Azurani 1996; cited from earlier work"}, "rat renal membranes": {"tested_on": "rat renal membranes", "details": "Rosenblatt 1981; cited from earlier work"}, "[7]": {"target": "T4, rat PTH-1 receptor (endogenous, ROS 17/2.8 cells) (Rattus norvegicus, UniProt P25961)", "T4 construct": "The rat osteoblastic cell line ROS 17/2.8; endogenous in cells; host or cells: ROS 17/2.8 rat osteoblastic cells", "T4 sequence (P25961 27-591)": "T3 sequence (P25961 27-591)", "assay": "cAMP response in osteoblastic ROS 17/2.8 cells", "type": "cell-based", "details": "ROS 17/2.8 cells", "protocol": "The rat osteoblastic cell line ROS 17/2.8 (Majeska, R. J., et al, Endocrinology 107:1494-1503 (1980)) expresses endogenous PTH-1 receptors at levels of 80,000 per cell and the human osteoblastic cell line, SAOS-2, express endogenous PTH-1 receptors at levels of ˜30,000 per cell.\nas §2\nAll calculations were performed using Microsoft Excel. Nonlinear regression analysis of cAMP stimulation data was performed using parameters, defined as the Minimum, Maximum, Emax, midpoint (EC50), and slope of the response curve. The predicted response (yp) for a given dose (x) of peptide was calculated using the following equation: yp=Min+[(Max−Min)/(1+(EC50/x)^slope)]. The initial parameter values were estimated from the primary data, and the Excel “Solver function” was then used to vary the four parameters in order to minimize the differences between the predicted and actual responses (least-squares method) (Bowen, W., & Jerman, J., Trends in Pharmacol. Sci. 16:413-417 (1995)). The statistical significance between two data sets was determined using a one-tailed Student's t-test, assuming unequal variances for the two sets."}}, "note": "No end group written: not given here."}
{"substance": "PTH(15-34)", "values": [{"measurement": "cAMP response", "setting": "PTH-1 receptor [1]", "value": "inactive"}]}
{"substance": "PTH(1-10) (AVSEIQLMHN-NH2; UniProt P04089 32-41, looked up, fragment) [native rat PTH fragment analog]", "values": [{"measurement": "cAMP response of native rat PTH fragments (in words)", "setting": "PTH-1 receptor [2]", "value": "little or no cAMP response"}]}
{"substance": "AVAEIQLMHARAK-NH2 [compound 4, AlaValAlaGluIleGlnLeuMetHisAlaArgAlaLys-amide]", "values": [{"measurement": "Emax", "setting": "hPTH-2 Receptor", "value": 501, "unit": "picomole/well"}, {"measurement": "cAMP signaling activity (in words)", "setting": "PTH-1 receptor [3]", "value": "signaling activity was readily observed"}, {"measurement": "Emax", "setting": "PTH-1 receptor [3]", "value": "239 ± 7", "unit": "picomole/well"}]}
{"substance": "PTH(1-9) (AVSEIQLMH-NH2; UniProt P04089 32-40, looked up, fragment) [native rat PTH fragment analog]", "values": [{"measurement": "cAMP response of native rat PTH fragments (in words)", "setting": "PTH-1 receptor [2]", "value": "little or no cAMP response"}]}
{"substance": "PTH(1-34)", "values": [{"measurement": "fold weaker with the truncated receptor than with the intact receptor", "setting": "[4]", "value": 1000, "unit": "fold"}, {"measurement": "bone density", "setting": "[5]", "value": "increases in bone density"}]}
{"substance": "PTH(1-13) (AVSEIQLMHNLGK-NH2; UniProt P04089 32-44, looked up, fragment) [native rat PTH fragment analog]", "values": [{"measurement": "cAMP response of native rat PTH fragments (in words)", "setting": "PTH-1 receptor [2]", "value": "little or no cAMP response"}]}
{"substance": "AVAEIQLMHARA-NH2 [compound 5, AlaValAlaGluIleGlnLeuMetHisAlaArgAla-amide]", "values": [{"measurement": "Emax", "setting": "hPTH-2 Receptor", "value": 501, "unit": "picomole/well"}, {"measurement": "cAMP signaling activity (in words)", "setting": "PTH-1 receptor [3]", "value": "signaling activity was readily observed"}, {"measurement": "Emax", "setting": "PTH-1 receptor [3]", "value": "238 ± 9", "unit": "picomole/well"}]}
{"substance": "PTH(1-12) (AVSEIQLMHNLG-NH2; UniProt P04089 32-43, looked up, fragment) [native rat PTH fragment analog]", "values": [{"measurement": "cAMP response of native rat PTH fragments (in words)", "setting": "PTH-1 receptor [2]", "value": "little or no cAMP response"}]}
{"substance": "PTHrP(1-16) (AVSEHQLLHDKGKSIQ; Parathyroid hormone-related protein; UniProt P12272 37-52, looked up, fragment) [short NH2-terminal PTHrP peptide from the literature]", "values": [{"measurement": "AC activity", "setting": "[6]", "value": "inactive"}]}
{"substance": "PTH(1-11) (AVSEIQLMHNL-NH2; UniProt P04089 32-42, looked up, fragment) [native rat PTH fragment analog]", "values": [{"measurement": "cAMP response of native rat PTH fragments (in words)", "setting": "PTH-1 receptor [2]", "value": "little or no cAMP response"}]}
{"substance": "AVAEIQLMHQRAKH-NH2 [compound 3, AlaValAlaGluIleGlnLeuMetHisGlnArgAlaLysHis-amide]", "values": [{"measurement": "Emax", "setting": "PTH-1 receptor [3]", "value": "235 ± 3", "unit": "picomole/well"}]}
{"substance": "bPTH(1-12) (AVSEIQFMHNLG; Parathyroid hormone; UniProt P01268 32-43, looked up, fragment) [short NH2-terminal PTH peptide from the literature]", "values": [{"measurement": "adenyl cyclase activity", "setting": "rat renal membranes", "value": "inactive"}]}
{"substance": "AVAEIQLMHARAKW-NH2 [Peptide #2, AlaValAlaGluIleGlnLeuMetHisAlaArgAlaLysTrp-amide]", "values": [{"measurement": "Emax", "setting": "[7]", "value": 382, "unit": "picomole/well"}, {"measurement": "Emax", "setting": "PTH-1 receptor [3]", "value": "262 ± 9", "unit": "picomole/well"}, {"measurement": "fold more potent than native PTH(1-14)", "setting": "PTH-1 receptor [3]; LLC-PK1 cells stably expressing hPTH-1 receptor, cAMP", "value": 220, "unit": "fold"}]}
{"substance": "[A3,Q10]rPTH(1-10) (AVAEIQLMHQ-NH2)", "values": [{"measurement": "cAMP signaling activity (in words)", "setting": "PTH-1 receptor [3]", "value": "elicited some activity"}]}
